Test results: ChEMBL document CHEMBL5696439 (Cancer Res, 2010)
Calls of active or inactive are those of the source. No cut-off for these calls is given here.

How the values were obtained:
[1] = target: Leukocyte tyrosine kinase receptor (Homo sapiens) (UniProt P29376); assay: Inhibition of recombinant human GST-tagged LTK (450-864 residues) expressed in insect cells at 2 uM using Tyr 06 as substrate measured after 1 hr by Z'-LYTE assay relative to control; details: Insect cell
[2] = target: Fibroblast growth factor receptor 3 (Homo sapiens) (UniProt P22607); assay: Inhibition of recombinant human His-tagged FGFR3 (399-806 residues) expressed in insect cells at 2 uM using Tyr 04 as substrate measured after 1 hr by Z'-LYTE assay relative to control; details: Insect cell
Chain of Fibroblast growth factor receptor 3 (Homo sapiens) (P22607 23-806 limits assumed): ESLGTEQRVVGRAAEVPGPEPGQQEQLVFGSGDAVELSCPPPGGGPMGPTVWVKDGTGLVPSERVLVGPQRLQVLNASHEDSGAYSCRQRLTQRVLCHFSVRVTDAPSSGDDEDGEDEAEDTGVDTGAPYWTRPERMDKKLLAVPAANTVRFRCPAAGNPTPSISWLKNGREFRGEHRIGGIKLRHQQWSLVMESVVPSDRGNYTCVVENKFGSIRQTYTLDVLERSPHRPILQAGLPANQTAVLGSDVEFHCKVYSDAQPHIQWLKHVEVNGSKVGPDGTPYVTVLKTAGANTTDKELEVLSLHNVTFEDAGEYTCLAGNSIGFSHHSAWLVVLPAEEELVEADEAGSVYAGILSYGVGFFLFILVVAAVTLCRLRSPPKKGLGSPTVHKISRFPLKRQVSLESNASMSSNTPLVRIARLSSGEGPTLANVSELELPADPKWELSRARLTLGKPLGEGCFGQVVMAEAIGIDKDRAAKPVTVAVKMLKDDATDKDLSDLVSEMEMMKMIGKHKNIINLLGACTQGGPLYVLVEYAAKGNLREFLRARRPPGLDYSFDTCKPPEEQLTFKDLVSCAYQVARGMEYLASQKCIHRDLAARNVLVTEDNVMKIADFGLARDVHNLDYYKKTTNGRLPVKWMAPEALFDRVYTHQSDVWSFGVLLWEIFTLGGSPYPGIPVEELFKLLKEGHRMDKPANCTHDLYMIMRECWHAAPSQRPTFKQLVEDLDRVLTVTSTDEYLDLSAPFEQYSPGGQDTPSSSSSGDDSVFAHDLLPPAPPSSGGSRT

[3] = system: MDA-MB-361; assay: Induction of apoptosis in human MDA-MB-361 cells assessed as induction in cell death at 30 nmol/L incubated for 48 hrs by FACS analysis relative to control; type: functional
[4] = target: Insulin receptor (Homo sapiens) (UniProt P06213); assay: Inhibition of recombinant human GST-tagged INSR (1011-1382 residues) expressed in insect cells at 2 uM using Tyr 01 as substrate measured after 1 hr by Z'-LYTE assay relative to control; details: Insect cell
[5] = system: 786-0; assay: Antitumor activity against PTEN null-human 786-0 cells xenografted in female nude mouse model assessed as suppression in tumor growth at 25 mg/kg, po qd administered as 5 days on/2 days off regimen for 4 cycles relative to control; type: functional; details: time 28 day
[6] = target: Macrophage colony-stimulating factor 1 receptor (Homo sapiens) (UniProt P07333); assay: Inhibition of recombinant human His-tagged CSF1R (538-910 residues) expressed in baculovirus expression system at 2 uM using Tyr 01 as substrate measured after 1 hr by Z'-LYTE assay relative to control
[7] = system: MDA-MB-361; assay: Induction of apoptosis in human MDA-MB-361 cells assessed as change in AKT phosphorylation at T308 level at 0.05 to 5 micromol/L incubated for 48 hrs by Western blot analysis; type: functional, cell-based; details: dose 0.05-5 µmol/L
[8] = target: Macrophage-stimulating protein receptor (Homo sapiens) (UniProt Q04912); assay: Inhibition of recombinant human GST-tagged MST1R (983-1400 residues) expressed in insect cells at 2 uM using Tyr 06 as substrate measured after 1 hr by Z'-LYTE assay relative to control; details: Insect cell
[9] = target: Insulin-like growth factor 1 receptor (Homo sapiens) (UniProt P08069); assay: Inhibition of recombinant human His-tagged IGF1R (960-1397 residues) expressed in baculovirus expression system at 2 uM using Tyr 01 as substrate measured after 1 hr by Z'-LYTE assay relative to control
[10] = target: Serine/threonine-protein kinase BRSK1 (Homo sapiens) (UniProt Q8TDC3); assay: Inhibition of recombinant human full-length GST tagged BRSK1 expressed in baculovirus expression system at 2 uM using Ser/Thr 21 as substrate measured after 1 hr by Z'-LYTE assay relative to control
Chain of Serine/threonine-protein kinase BRSK1 (Homo sapiens) (Q8TDC3 whole entry): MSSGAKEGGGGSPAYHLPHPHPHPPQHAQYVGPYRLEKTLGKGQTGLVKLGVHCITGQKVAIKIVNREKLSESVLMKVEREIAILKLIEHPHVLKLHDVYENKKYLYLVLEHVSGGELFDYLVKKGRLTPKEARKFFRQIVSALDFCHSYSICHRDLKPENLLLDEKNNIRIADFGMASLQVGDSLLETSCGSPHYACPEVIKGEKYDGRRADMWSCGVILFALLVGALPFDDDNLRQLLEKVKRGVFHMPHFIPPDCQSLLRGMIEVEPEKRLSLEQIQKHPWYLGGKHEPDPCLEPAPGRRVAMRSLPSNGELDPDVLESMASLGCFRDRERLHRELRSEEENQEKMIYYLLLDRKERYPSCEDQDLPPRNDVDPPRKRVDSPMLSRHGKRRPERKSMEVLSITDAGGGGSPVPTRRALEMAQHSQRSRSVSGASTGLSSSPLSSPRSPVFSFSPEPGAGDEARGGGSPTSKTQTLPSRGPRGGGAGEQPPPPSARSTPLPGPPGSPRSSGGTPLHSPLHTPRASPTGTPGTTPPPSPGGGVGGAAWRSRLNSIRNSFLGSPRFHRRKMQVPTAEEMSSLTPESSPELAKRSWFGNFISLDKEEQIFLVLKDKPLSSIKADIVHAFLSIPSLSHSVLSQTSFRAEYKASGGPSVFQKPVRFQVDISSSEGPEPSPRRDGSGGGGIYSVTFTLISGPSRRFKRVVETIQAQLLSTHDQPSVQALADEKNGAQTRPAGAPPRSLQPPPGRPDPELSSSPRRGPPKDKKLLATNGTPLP

[11] = target: Inhibitor of nuclear factor kappa-B kinase subunit beta (Homo sapiens) (UniProt O14920); assay: Inhibition of recombinant human full-length GST-tagged IKBKB expressed in insect cells at 2 uM using Ser/Thr 05 as substrate measured after 1 hr by Z'-LYTE assay relative to control; details: Insect cell
[12] = system: BT-549; assay: Antiproliferative activity against human BT-549 cells assessed as cell growth inhibition incubated for 24 hrs by MTS assay; type: functional, cell-based; details: BT-549, 24 h
[13] = target: mTORC1 (Homo sapiens) (UniProt P42345+Q8N122+Q9BVC4); details: U-87 MG, dose 0.025-2 µmol/L, time 6.0 hrs
[14] = system: MDA-MB-361; assay: Antiproliferative activity against human MDA-MB-361 cells assessed as cell growth inhibition incubated for 3 days by MTS assay; type: functional, cell-based; details: MDA-MB-361, 72 h
[15] = target: Tyrosine-protein kinase ABL1 (Homo sapiens) (UniProt P00519); assay: Inhibition of recombinant human full-length His-tagged ABL1 expressed in insect cells at 2 uM using Tyr 02 as substrate measured after 1 hr by Z'-LYTE assay relative to control; details: Insect cell
[16] = system: MDA-MB-361; assay: Induction of apoptosis in human MDA-MB-361 cells assessed as induction in cell death at 10 nmol/L incubated for 48 hrs by FACS analysis relative to control; type: functional
[17] = target: Ephrin type-A receptor 2 (Homo sapiens) (UniProt P29317); assay: Inhibition of recombinant human GST-tagged EPHA2 (568-976 residues) expressed in insect cells at 2 uM using Tyr 01 as substrate measured after 1 hr by Z'-LYTE assay relative to control; details: Insect cell
Chain of Ephrin type-A receptor 2 (Homo sapiens) (P29317 whole entry, the tested form may be a part): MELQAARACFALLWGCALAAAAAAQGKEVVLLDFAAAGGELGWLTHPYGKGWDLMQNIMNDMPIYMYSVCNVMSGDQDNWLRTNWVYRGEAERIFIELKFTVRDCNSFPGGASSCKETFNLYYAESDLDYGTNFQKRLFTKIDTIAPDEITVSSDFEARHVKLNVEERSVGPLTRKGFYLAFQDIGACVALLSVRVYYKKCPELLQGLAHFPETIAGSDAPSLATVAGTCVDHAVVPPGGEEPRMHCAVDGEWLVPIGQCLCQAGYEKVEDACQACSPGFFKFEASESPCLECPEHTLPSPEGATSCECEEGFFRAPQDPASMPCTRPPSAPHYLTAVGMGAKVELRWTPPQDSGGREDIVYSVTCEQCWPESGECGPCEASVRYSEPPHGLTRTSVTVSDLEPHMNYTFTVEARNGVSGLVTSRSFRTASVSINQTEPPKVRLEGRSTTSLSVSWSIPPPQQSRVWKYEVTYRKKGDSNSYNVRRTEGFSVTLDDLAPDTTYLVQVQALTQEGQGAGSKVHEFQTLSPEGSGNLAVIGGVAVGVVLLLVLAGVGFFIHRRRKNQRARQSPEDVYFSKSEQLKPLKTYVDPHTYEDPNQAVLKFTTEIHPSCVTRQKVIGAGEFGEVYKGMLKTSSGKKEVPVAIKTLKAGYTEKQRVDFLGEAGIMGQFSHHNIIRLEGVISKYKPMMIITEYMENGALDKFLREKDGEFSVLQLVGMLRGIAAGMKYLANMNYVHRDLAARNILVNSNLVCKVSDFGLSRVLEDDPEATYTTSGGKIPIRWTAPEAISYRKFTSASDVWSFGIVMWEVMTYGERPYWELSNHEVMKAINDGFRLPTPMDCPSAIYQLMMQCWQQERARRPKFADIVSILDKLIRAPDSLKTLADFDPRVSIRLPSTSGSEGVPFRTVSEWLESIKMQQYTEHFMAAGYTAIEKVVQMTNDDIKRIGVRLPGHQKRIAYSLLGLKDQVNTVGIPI

[18] = target: cAMP-dependent protein kinase catalytic subunit PRKX (Homo sapiens) (UniProt P51817); assay: Inhibition of recombinant human full length GST-tagged PRKX expressed in insect cells at 2 uM using Ser/Thr 01 as substrate measured after 1 hr by Z'-LYTE assay relative to control; details: Insect cell
Chain of cAMP-dependent protein kinase catalytic subunit PRKX (Homo sapiens) (P51817 whole entry): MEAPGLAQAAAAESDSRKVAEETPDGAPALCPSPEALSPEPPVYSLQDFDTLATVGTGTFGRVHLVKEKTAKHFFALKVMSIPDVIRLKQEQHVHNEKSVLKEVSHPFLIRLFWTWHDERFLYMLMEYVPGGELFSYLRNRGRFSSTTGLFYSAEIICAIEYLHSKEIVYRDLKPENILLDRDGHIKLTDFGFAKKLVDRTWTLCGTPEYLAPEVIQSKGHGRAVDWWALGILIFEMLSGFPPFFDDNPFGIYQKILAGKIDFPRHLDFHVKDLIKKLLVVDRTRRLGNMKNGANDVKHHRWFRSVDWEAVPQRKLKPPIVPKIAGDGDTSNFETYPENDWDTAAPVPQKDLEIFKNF

[19] = target: Calcium/calmodulin-dependent protein kinase type II subunit beta (Homo sapiens) (UniProt Q13554); assay: Inhibition of recombinant human full-length His-tagged CAMK2B expressed in insect cells at 2 uM using Ser/Thr 17 as substrate measured after 1 hr by Z'-LYTE assay relative to control; details: Insect cell
Chain of Calcium/calmodulin-dependent protein kinase type II subunit beta (Homo sapiens) (Q13554 whole entry, the tested form may be a part): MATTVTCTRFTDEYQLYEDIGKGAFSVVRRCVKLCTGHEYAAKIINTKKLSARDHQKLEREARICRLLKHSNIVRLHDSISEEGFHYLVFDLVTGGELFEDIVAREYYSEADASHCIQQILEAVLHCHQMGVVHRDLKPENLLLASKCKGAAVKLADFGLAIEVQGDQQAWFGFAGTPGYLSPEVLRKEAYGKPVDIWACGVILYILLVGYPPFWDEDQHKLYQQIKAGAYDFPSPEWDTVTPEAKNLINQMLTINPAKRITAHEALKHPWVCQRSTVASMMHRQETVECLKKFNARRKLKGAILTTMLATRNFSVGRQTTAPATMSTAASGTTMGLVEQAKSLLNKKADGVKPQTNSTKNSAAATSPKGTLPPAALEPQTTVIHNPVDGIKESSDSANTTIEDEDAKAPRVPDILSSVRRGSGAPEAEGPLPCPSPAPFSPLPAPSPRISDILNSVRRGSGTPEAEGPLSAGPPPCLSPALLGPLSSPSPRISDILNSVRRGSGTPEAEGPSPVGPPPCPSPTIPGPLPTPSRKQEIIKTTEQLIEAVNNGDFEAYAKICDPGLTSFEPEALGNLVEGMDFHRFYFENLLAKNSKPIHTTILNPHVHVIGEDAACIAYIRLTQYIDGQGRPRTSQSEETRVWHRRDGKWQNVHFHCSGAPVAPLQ

[20] = target: Tyrosine-protein kinase receptor TYRO3 (Homo sapiens) (UniProt Q06418); assay: Inhibition of recombinant human GST-tagged TYRO3 (451-890 residues) expressed in insect cells at 2 uM using […] as substrate measured after 1 hr by Z'-LYTE assay relative to control; details: Insect cell
[21] = target: Mitogen-activated protein kinase 10 (Homo sapiens) (UniProt P53779); assay: Inhibition of recombinant human full length GST-tagged MAPK10 expressed in insect cells at 2 uM using Ser/Thr 04 as substrate measured after 1 hr by Z'-LYTE assay relative to control; details: Insect cell
Chain of Mitogen-activated protein kinase 10 (Homo sapiens) (P53779 whole entry, the tested form may be a part): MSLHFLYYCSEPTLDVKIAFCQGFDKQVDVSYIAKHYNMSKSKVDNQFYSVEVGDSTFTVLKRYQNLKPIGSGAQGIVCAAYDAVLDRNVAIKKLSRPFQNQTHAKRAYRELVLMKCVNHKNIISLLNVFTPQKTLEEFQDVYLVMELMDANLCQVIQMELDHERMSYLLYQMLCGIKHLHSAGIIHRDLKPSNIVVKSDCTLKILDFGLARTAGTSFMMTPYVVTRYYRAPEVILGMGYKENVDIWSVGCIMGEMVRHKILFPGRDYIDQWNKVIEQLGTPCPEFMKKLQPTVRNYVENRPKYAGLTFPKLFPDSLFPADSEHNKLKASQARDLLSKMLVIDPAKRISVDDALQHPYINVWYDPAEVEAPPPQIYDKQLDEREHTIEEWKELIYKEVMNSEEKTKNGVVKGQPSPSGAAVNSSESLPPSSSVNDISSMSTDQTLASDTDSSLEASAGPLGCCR

[22] = system: Platelet-derived growth factor receptor alpha (Homo sapiens), P16234 [D842V]; assay: Inhibition of recombinant human GST-tagged PDGFRA D842V mutant (550-1089 residues) expressed in baculovirus expression system at 2 uM using Tyr 04 as substrate measured after 1 hr by Z'-LYTE assay relative to control
[23] = target: Tyrosine-protein kinase Lyn (Homo sapiens) (UniProt P07948); assay: Inhibition of recombinant human full length His-tagged LYN B expressed in baculovirus expression system at 2 uM using Tyr 02 as substrate measured after 1 hr by Z'-LYTE assay relative to control
Chain of Tyrosine-protein kinase Lyn (Homo sapiens) (P07948 2-512 limits assumed): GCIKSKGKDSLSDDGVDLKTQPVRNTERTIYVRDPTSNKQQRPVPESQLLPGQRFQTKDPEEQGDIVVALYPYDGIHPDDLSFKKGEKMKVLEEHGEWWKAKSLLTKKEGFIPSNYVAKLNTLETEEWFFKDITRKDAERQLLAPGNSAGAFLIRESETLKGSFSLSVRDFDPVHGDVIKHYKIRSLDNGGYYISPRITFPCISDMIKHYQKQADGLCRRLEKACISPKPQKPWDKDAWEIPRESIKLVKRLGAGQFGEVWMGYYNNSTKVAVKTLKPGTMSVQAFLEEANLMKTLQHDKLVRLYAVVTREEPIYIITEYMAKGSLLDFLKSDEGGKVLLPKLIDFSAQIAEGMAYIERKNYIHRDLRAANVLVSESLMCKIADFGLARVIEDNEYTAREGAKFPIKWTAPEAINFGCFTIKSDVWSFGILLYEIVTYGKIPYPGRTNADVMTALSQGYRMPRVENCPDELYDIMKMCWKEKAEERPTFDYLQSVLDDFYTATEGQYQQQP

[24] = system: HCT-116; assay: Induction of apoptosis in human HCT-116 cells assessed as increase in G1 phase at 1 micromol/L incubated for 24 hrs by FACS analysis; type: functional, cell-based; details: dose 1.0 µmol/L
[25] = target: Serine/threonine-protein kinase 26 (Homo sapiens) (UniProt Q9P289); assay: Inhibition of recombinant human full length GST-tagged MST4 expressed in insect cells at 2 uM using Ser/Thr 07 as substrate measured after 1 hr by Z'-LYTE assay relative to control; details: Insect cell
Chain of Serine/threonine-protein kinase 26 (Homo sapiens) (Q9P289 2-416 limits assumed): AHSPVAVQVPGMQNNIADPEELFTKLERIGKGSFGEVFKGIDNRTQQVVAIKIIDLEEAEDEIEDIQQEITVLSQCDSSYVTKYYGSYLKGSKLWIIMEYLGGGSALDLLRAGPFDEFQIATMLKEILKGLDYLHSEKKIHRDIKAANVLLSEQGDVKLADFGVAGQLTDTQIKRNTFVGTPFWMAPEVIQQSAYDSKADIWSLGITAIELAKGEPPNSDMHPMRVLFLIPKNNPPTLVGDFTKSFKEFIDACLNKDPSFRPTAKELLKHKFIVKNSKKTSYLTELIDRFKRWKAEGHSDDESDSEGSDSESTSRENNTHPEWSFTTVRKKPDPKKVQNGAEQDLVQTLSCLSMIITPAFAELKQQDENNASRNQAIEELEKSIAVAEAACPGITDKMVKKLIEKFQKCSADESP

[26] = target: Dual specificity tyrosine-phosphorylation-regulated kinase 3 (Homo sapiens) (UniProt O43781); assay: Inhibition of recombinant human full-length GST-tagged DYRK3 expressed in insect cells at 2 uM using Ser/Thr 09 as substrate measured after 1 hr by Z'-LYTE assay relative to control; details: Insect cell

## CNC(=O)Nc1ccc(-c2nc(N3CC4CCC(C3)O4)c3cnn(C4CCC5(CC4)OCCO5)c3n2)cc1
[1]
  inhibition: 8%
[2]
  inhibition: 5%
[3]
  Activity: 13%
[4]
  inhibition: 4%
[5]
  Activity: 100%
[6]
  inhibition: 7%
[7]
  Activity: inactive
[8]
  inhibition: -1%
[9]
  inhibition: 1%
[10]
  inhibition: 1%
[11]
  inhibition: -5%
[12]
  IC50: 37 nM
[13]
  inhibition: Active
[14]
  IC50: 12 nM
[15]
  inhibition: 4%
[16]
  Activity: 6.2%
[17]
  inhibition: 8%
[18]
  inhibition: 5%
[19]
  inhibition: 8%
[20]
  inhibition: 9%
[21]
  inhibition: 14%
[22]
  inhibition: 4%
[23]
  inhibition: 5%
[24]
  Activity: Active
[25]
  inhibition: 7%
[26]
  inhibition: -1%
